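Five compound concentrations were applied to cells in 96-well plates for 48 hours; endpoints were derived by simple linear interpolation of the resulting dose-response curve. TGI denotes the concentration required for complete inhibition of growth.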

From PubChem BioAssay (NCI) come the findings set out here.

Some test systems named below: CAKI-1 renal; OVCAR-5 ovarian; SNB-19 CNS; MOLT-4 leukemia; 786-0 renal; BT-549 breast; SF-295 CNS; SF-268 CNS; PC-3 prostate; HCT-15 colon; MDA-MB-231 breast; HCT-116 colon; K-562 leukemia; MDA-MB-435; U251 CNS; NCI-H522 lung; NCI-H226 lung; SK-MEL-2 melanoma; TK-10 renal.
Experiment in all cases: NCI tumour cell line growth inhibition, 48 h

With `CC(=O)OCC1OC(n2nc(Cc3ccccc3)c(=S)[nH]c2=S)C(OC(C)=O)C(OC(C)=O)C1OC(C)=O` (configuration not stated), the TGI in the assay with CAKI-1 renal was above 100 µM; in the assay with OVCAR-5 ovarian it was above 100 µM; in the assay with SNB-19 CNS, 78.8 µM; in the assay with MOLT-4 leukemia it was above 100 µM; in the assay with 786-0 renal, above 100 µM; in the assay with BT-549 breast, 41.7 µM. The TGI in the assay with SF-295 CNS was above 100 µM; in the assay with SF-268 CNS, 52.2 µM; with PC-3 prostate it was above 100 µM; in the assay with HCT-15 colon, 40.5 µM; in the assay on MDA-MB-231 breast, 30.6 µM; with HCT-116 colon it was 47.1 µM. Besides, the TGI in the assay with K-562 leukemia is above 100 µM; in the assay with MDA-MB-435, 36.7 µM; in the assay with U251 CNS, 73.4 µM; in the assay on NCI-H522 lung it was 47.5 µM; in the assay on NCI-H226 lung, above 100 µM; with SK-MEL-2 melanoma, 35.1 µM. The molecule further had a TGI in the assay on TK-10 renal above 100 µM.
Take `Cn1c(N=P(c2ccccc2)(c2ccccc2)c2ccccc2)c([N+](=O)[O-])c(=O)n(C)c1=O`: the TGI is above 100 µM with CAKI-1 renal; above 100 µM with OVCAR-5 ovarian; above 100 µM in the assay with SNB-19 CNS; 66.8 µM in the assay with MOLT-4 leukemia; above 100 µM in the assay on 786-0 renal; above 100 µM in the assay on BT-549 breast. Also, the TGI with SF-295 CNS, in the assay with SF-268 CNS, with PC-3 prostate, in the assay on HCT-15 colon, with MDA-MB-231 breast and in the assay with HCT-116 colon was above 100 µM in each case. In addition, the TGI in the assay on K-562 leukemia, in the assay with MDA-MB-435, with U251 CNS, in the assay on NCI-H522 lung, with NCI-H226 lung and in the assay on SK-MEL-2 melanoma was above 100 µM throughout. In the assay on TK-10 renal, this molecule yielded a TGI above 100 µM.
For `Cc1ccc(N=C2C(c3ccccc3)=C(SC3=C(c4ccccc4)C(=Nc4ccc(C)cc4)c4ccccc43)c3ccccc32)cc1`, the TGI is 65.6 µM in the assay on CAKI-1 renal; above 100 µM in the assay with OVCAR-5 ovarian; 17.1 µM in the assay with SNB-19 CNS; above 100 µM in the assay on MOLT-4 leukemia; 22.4 µM in the assay on 786-0 renal; above 62.8 µM in the assay on BT-549 breast. Also, the TGI was 27.4 µM with SF-295 CNS; 18.8 µM with SF-268 CNS; above 100 µM in the assay on PC-3 prostate; above 100 µM in the assay on HCT-15 colon; 38.7 µM in the assay with MDA-MB-231 breast; above 100 µM in the assay on HCT-116 colon. The TGI in the assay on K-562 leukemia was above 100 µM; in the assay on MDA-MB-435, above 100 µM; in the assay on U251 CNS it was above 53.5 µM; in the assay on NCI-H522 lung it was above 100 µM; in the assay with NCI-H226 lung, above 63.1 µM; with SK-MEL-2 melanoma, above 78.7 µM. This molecule also registered a TGI in the assay with TK-10 renal above 100 µM.
`CCCC(=O)NC(Nc1ccc(S(=O)(=O)Nc2ccc(OC)nn2)cc1)(C(F)(F)F)C(F)(F)F`: the TGI with CAKI-1 renal, in the assay with OVCAR-5 ovarian, in the assay on SNB-19 CNS, in the assay on MOLT-4 leukemia, with 786-0 renal and with BT-549 breast was above 100 µM throughout. For the same molecule, the TGI with SF-295 CNS, with SF-268 CNS, in the assay with PC-3 prostate, in the assay on HCT-15 colon, in the assay with MDA-MB-231 breast and in the assay with HCT-116 colon was above 100 µM each time. The TGI in the assay on K-562 leukemia, in the assay on MDA-MB-435, with U251 CNS, with NCI-H522 lung, in the assay on NCI-H226 lung and in the assay on SK-MEL-2 melanoma was above 100 µM throughout. The TGI with TK-10 renal is above 100 µM.
For `S=C(N1CCN(c2ccccc2)CC1)N1CCN(c2ccccc2)CC1`, the TGI in the assay with CAKI-1 renal, with OVCAR-5 ovarian, in the assay with SNB-19 CNS, in the assay with MOLT-4 leukemia, with 786-0 renal and in the assay on BT-549 breast was above 100 µM each time. The TGI with SF-295 CNS, with SF-268 CNS, in the assay with PC-3 prostate, in the assay on HCT-15 colon, with MDA-MB-231 breast and with HCT-116 colon was above 100 µM in each case. Further, the TGI in the assay with K-562 leukemia, with MDA-MB-435, in the assay with U251 CNS, in the assay with NCI-H522 lung, with NCI-H226 lung and with SK-MEL-2 melanoma was above 100 µM in each case. The TGI in the assay on TK-10 renal is above 100 µM.
`CCCCCCCCOC(=O)c1cc([N+](=O)[O-])c(Sc2ncnc3nc[nH]c23)c([N+](=O)[O-])c1`: the TGI with CAKI-1 renal is 17.7 µM; with OVCAR-5 ovarian, 13.8 µM; with SNB-19 CNS, 32.9 µM; in the assay with MOLT-4 leukemia, 16.2 µM; in the assay on 786-0 renal it was above 37.2 µM; with BT-549 breast it was 25.7 µM. The TGI in the assay on SF-295 CNS is 11.2 µM; in the assay with SF-268 CNS, 8.47 µM; in the assay on PC-3 prostate, 13.8 µM; in the assay on HCT-15 colon, 20.6 µM; with MDA-MB-231 breast, above 31.6 µM; with HCT-116 colon, 5.35 µM. Besides, the TGI is 7.8 µM in the assay with K-562 leukemia; above 38.4 µM in the assay with MDA-MB-435; 17.3 µM in the assay with U251 CNS; 2.41 µM in the assay with NCI-H522 lung; 13.5 µM in the assay with NCI-H226 lung; 17.7 µM in the assay with SK-MEL-2 melanoma. Besides, in the assay on TK-10 renal, the TGI was 8.58 µM.
For `COc1cc2c[n+](C)c3c(c2cc1OC)Cc1cc2c(cc1-3)OCO2`, the TGI in the assay with CAKI-1 renal, in the assay on OVCAR-5 ovarian, in the assay with SNB-19 CNS, in the assay with MOLT-4 leukemia, with 786-0 renal and with BT-549 breast was above 100 µM each time. Also, the TGI in the assay with SF-295 CNS, with SF-268 CNS, with PC-3 prostate, in the assay on HCT-15 colon, in the assay on MDA-MB-231 breast and in the assay on HCT-116 colon was above 100 µM in each case. Besides, the TGI in the assay with K-562 leukemia, in the assay on MDA-MB-435, with U251 CNS, in the assay on NCI-H522 lung, in the assay with NCI-H226 lung and in the assay on SK-MEL-2 melanoma was above 100 µM in each case. This molecule yielded a TGI in the assay on TK-10 renal above 100 µM.
Turning to `COc1cccc(/C=C\c2ccc(O)cc2)c1`, the TGI in the assay on CAKI-1 renal is above 84.1 µM; with OVCAR-5 ovarian, above 100 µM; in the assay on SNB-19 CNS, above 100 µM; with MOLT-4 leukemia, 38.7 µM; in the assay on 786-0 renal it was 49.2 µM; with BT-549 breast, 58.4 µM. Moreover, the TGI with SF-295 CNS was above 100 µM; in the assay with SF-268 CNS, above 96.7 µM; in the assay with PC-3 prostate, 99.5 µM; in the assay on HCT-15 colon, above 76.1 µM; with MDA-MB-231 breast, above 100 µM; in the assay on HCT-116 colon, 74 µM. Also, the TGI was above 50.4 µM in the assay on K-562 leukemia; above 91.2 µM in the assay with MDA-MB-435; above 57.5 µM with U251 CNS; 56.8 µM in the assay on NCI-H522 lung; above 88.8 µM in the assay with NCI-H226 lung; 68.8 µM in the assay on SK-MEL-2 melanoma. Also, in the assay on TK-10 renal, the TGI is above 100 µM.
In the case of `CC(=O)/C(C=Nc1c(C)n(C)n(C)c1=O)=C(/O)c1ccccc1`, the TGI in the assay with CAKI-1 renal, in the assay on OVCAR-5 ovarian, with SNB-19 CNS, in the assay with MOLT-4 leukemia, in the assay on 786-0 renal and with BT-549 breast was above 50 µM in each case. The TGI in the assay on SF-295 CNS, in the assay with SF-268 CNS, in the assay with PC-3 prostate, with HCT-15 colon, with MDA-MB-231 breast and with HCT-116 colon was above 50 µM in each case. Also, the TGI in the assay with K-562 leukemia, in the assay with MDA-MB-435, in the assay on U251 CNS, in the assay with NCI-H522 lung, with NCI-H226 lung and in the assay with SK-MEL-2 melanoma was above 50 µM each time. Also, in the assay with TK-10 renal, the TGI was above 50 µM.
For the molecule `C1CN2CCNCCN(CCN1)CC2`, the TGI with CAKI-1 renal, in the assay with OVCAR-5 ovarian, with SNB-19 CNS, with MOLT-4 leukemia, with 786-0 renal and in the assay with BT-549 breast was above 100 µM each time. Besides, the TGI in the assay with SF-295 CNS, in the assay with SF-268 CNS, in the assay with PC-3 prostate, in the assay on HCT-15 colon, in the assay on MDA-MB-231 breast and in the assay with HCT-116 colon was above 100 µM each time. The TGI in the assay on K-562 leukemia, in the assay with MDA-MB-435, in the assay on U251 CNS, in the assay on NCI-H522 lung, with NCI-H226 lung and with SK-MEL-2 melanoma was above 100 µM in each case. This molecule also had a TGI with TK-10 renal above 100 µM.
As to `CCOC(=O)C(CCc1ncnc2c1ncn2Cc1ccccc1)(CCc1ncnc2c1ncn2Cc1ccccc1)C(=O)OCC`, the TGI with CAKI-1 renal, in the assay with OVCAR-5 ovarian, with SNB-19 CNS, in the assay with MOLT-4 leukemia, in the assay on 786-0 renal and with BT-549 breast was above 100 µM each time. Moreover, the TGI in the assay on SF-295 CNS, in the assay with SF-268 CNS, in the assay with PC-3 prostate, in the assay with HCT-15 colon, with MDA-MB-231 breast and in the assay with HCT-116 colon was above 100 µM each time. Besides, the TGI in the assay with K-562 leukemia, in the assay on MDA-MB-435, in the assay on U251 CNS, with NCI-H522 lung, in the assay with NCI-H226 lung and in the assay on SK-MEL-2 melanoma was above 100 µM throughout. Moreover, the TGI in the assay with TK-10 renal is above 100 µM.
On to `CCOC(=O)C(Cc1ccc(N(CCCl)CCCl)cc1)NC(=O)CCCN1C(=O)CN=C(c2ccccc2)c2cc(Cl)ccc21` (configuration not stated), for which the TGI is above 55.7 µM in the assay with CAKI-1 renal; above 100 µM with OVCAR-5 ovarian; above 100 µM in the assay with SNB-19 CNS; above 100 µM in the assay with MOLT-4 leukemia; above 77.5 µM in the assay on 786-0 renal; above 100 µM with BT-549 breast. Also, the TGI with SF-295 CNS was above 100 µM; with SF-268 CNS, 71.5 µM; with PC-3 prostate, above 100 µM; in the assay on HCT-15 colon it was above 100 µM; with MDA-MB-231 breast, 78.6 µM; with HCT-116 colon, above 100 µM. The TGI was above 100 µM in the assay on K-562 leukemia; above 59.5 µM in the assay on MDA-MB-435; above 100 µM in the assay with U251 CNS; 13.2 µM in the assay on NCI-H522 lung; 97 µM in the assay with NCI-H226 lung; 29.9 µM in the assay on SK-MEL-2 melanoma. The molecule further gave a TGI in the assay with TK-10 renal above 100 µM.
Regarding `O=Nc1c(O)cc(Nc2cccnc2)c2ccccc12`, the TGI was above 100 µM in the assay with CAKI-1 renal; above 100 µM in the assay with OVCAR-5 ovarian; 8.39 µM in the assay on SNB-19 CNS; 41.6 µM with MOLT-4 leukemia; above 100 µM in the assay on 786-0 renal; above 100 µM with BT-549 breast. For the same molecule, the TGI is above 100 µM in the assay with SF-295 CNS; 53.4 µM in the assay with SF-268 CNS; above 100 µM in the assay with PC-3 prostate; 64.1 µM in the assay with HCT-15 colon; 47.3 µM in the assay on MDA-MB-231 breast; above 100 µM in the assay on HCT-116 colon. Moreover, the TGI with K-562 leukemia is 58.8 µM; in the assay on MDA-MB-435, above 100 µM; in the assay on U251 CNS it was above 100 µM; with NCI-H522 lung, 28 µM; with NCI-H226 lung it was above 100 µM; in the assay with SK-MEL-2 melanoma it was above 100 µM. The TGI with TK-10 renal is above 100 µM.
